{"source": "paper PMC10838953", "assay_in_all_cases": "biochemical", "settings_in_all_cases": "read-out: %Ctrl @ 2000nM", "key": {"[1]": {"molecular_target": "ABL1(T315I)-phosphorylated (Homo sapiens, UniProt P00519, T315I)"}, "ABL1-nonphosphorylated": {"molecular_target": "ABL1-nonphosphorylated (Homo sapiens, UniProt P00519)"}, "ABL1-phosphorylated": {"molecular_target": "ABL1-phosphorylated (Homo sapiens, UniProt P00519)"}, "ACVR2A": {"molecular_target": "ACVR2A (Homo sapiens, UniProt P27037)"}, "CAMK1": {"molecular_target": "CAMK1 (Homo sapiens, UniProt Q14012)"}, "CAMK1B": {"molecular_target": "CAMK1B (Homo sapiens, UniProt Q6P2M8)"}, "CDKL3": {"molecular_target": "CDKL3 (Homo sapiens, UniProt Q8IVW4)", "sequence (Q8IVW4 whole entry)": "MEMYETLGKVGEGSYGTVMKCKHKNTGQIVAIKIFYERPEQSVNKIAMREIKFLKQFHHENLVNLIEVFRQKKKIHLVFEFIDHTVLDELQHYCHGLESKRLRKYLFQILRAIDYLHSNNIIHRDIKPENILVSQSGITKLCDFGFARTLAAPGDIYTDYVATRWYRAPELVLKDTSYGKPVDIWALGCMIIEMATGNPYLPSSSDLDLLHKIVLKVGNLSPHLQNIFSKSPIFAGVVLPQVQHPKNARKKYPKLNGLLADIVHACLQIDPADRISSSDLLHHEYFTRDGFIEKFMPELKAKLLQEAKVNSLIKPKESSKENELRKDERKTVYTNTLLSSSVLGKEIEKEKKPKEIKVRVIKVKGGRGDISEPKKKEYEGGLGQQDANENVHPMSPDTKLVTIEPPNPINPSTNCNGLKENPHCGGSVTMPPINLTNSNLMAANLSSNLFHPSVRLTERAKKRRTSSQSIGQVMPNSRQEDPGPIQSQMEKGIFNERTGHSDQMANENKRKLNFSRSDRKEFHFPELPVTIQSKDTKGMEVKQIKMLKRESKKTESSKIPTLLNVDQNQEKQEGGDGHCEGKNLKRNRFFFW"}, "EGFR(G719C)": {"molecular_target": "EGFR(G719C) (Homo sapiens, UniProt P00533, G719C)", "sequence (P00533 25-1210 G719C)": "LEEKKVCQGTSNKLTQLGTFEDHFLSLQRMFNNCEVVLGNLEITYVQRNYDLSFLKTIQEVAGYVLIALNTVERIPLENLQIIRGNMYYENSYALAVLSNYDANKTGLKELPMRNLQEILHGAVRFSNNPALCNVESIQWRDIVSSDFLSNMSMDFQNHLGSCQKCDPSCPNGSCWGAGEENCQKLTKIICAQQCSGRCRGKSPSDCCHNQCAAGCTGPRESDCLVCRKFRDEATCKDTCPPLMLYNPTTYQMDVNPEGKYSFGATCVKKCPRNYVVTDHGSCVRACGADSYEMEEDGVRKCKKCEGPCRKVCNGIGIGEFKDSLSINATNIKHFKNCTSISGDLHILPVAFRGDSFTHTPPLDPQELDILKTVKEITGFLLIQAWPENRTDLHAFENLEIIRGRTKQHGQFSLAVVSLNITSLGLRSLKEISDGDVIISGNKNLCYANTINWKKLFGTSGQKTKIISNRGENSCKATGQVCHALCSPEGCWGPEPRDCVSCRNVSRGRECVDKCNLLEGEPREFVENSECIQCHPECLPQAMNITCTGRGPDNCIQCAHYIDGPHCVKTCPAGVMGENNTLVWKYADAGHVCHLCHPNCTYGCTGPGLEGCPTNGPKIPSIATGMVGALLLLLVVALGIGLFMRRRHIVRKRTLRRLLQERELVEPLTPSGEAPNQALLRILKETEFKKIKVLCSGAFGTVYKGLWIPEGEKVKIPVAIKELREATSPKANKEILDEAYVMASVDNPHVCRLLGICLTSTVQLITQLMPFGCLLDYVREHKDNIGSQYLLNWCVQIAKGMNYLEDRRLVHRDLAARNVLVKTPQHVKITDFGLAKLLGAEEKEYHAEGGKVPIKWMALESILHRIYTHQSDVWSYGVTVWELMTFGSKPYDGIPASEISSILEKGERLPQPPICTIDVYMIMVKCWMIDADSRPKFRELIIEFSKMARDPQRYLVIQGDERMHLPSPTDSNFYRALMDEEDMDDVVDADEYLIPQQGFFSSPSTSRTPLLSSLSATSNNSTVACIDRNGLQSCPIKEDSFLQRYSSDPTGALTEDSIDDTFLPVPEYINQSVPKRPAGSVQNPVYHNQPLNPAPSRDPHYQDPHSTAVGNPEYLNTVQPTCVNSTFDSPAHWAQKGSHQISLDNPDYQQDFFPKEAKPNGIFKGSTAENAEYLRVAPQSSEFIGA"}, "ERBB2": {"molecular_target": "ERBB2 (Homo sapiens, UniProt P04626)"}, "ERK1": {"molecular_target": "ERK1 (Homo sapiens, UniProt P27361)"}, "ERK4": {"molecular_target": "ERK4 (Homo sapiens, UniProt P31152)"}, "ERN1": {"molecular_target": "ERN1 (Homo sapiens, UniProt O75460)"}, "FES": {"molecular_target": "FES (Homo sapiens, UniProt P07332)"}, "FLT3(D835Y)": {"molecular_target": "FLT3(D835Y) (Homo sapiens, UniProt P36888, D835Y)"}, "FLT3(R834Q)": {"molecular_target": "FLT3(R834Q) (Homo sapiens, UniProt P36888, R834Q)"}, "GRK3": {"molecular_target": "GRK3 (Homo sapiens, UniProt P35626)"}, "HIPK3": {"molecular_target": "HIPK3 (Homo sapiens, UniProt Q9H422)"}, "INSRR": {"molecular_target": "INSRR (Homo sapiens, UniProt P14616)"}, "KIT(D816H)": {"molecular_target": "KIT(D816H) (Homo sapiens, UniProt P10721, D816H)"}, "LYN": {"molecular_target": "LYN (Homo sapiens, UniProt P07948)"}, "MAK": {"molecular_target": "MAK (Homo sapiens, UniProt P20794)"}, "MAP4K5": {"molecular_target": "MAP4K5 (Homo sapiens, UniProt Q9Y4K4)"}, "MARK4": {"molecular_target": "MARK4 (Homo sapiens, UniProt Q96L34)"}, "MET(Y1235D)": {"molecular_target": "MET(Y1235D) (Homo sapiens, UniProt P08581, Y1235D)"}, "MLK2": {"molecular_target": "MLK2 (Homo sapiens, UniProt Q02779)", "sequence (Q02779 whole entry)": "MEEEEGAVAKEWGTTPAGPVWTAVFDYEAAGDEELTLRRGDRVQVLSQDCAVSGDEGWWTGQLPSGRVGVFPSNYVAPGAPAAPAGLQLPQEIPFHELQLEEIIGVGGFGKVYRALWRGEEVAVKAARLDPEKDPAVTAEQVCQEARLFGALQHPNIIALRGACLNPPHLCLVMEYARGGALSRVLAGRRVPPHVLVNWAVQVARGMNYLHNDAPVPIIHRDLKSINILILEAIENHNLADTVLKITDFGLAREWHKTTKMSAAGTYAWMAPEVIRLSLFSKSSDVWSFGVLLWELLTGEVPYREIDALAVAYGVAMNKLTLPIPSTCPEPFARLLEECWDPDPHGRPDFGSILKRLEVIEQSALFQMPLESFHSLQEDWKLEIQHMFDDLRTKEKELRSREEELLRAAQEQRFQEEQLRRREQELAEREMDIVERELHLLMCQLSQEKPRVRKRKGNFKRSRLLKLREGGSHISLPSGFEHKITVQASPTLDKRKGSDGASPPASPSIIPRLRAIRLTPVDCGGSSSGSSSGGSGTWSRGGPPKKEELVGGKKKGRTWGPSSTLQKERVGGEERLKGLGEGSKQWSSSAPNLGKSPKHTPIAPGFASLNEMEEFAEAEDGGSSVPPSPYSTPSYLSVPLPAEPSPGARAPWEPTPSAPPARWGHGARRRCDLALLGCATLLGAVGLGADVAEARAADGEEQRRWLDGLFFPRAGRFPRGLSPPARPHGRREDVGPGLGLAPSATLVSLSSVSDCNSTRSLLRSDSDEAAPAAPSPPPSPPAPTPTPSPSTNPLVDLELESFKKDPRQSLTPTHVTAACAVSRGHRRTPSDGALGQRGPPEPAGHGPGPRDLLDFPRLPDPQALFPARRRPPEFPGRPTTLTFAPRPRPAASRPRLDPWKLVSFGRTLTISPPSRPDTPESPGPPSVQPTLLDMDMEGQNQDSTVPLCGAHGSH"}, "MRCKA": {"molecular_target": "MRCKA (Homo sapiens, UniProt Q5VT25)"}, "MYLK4": {"molecular_target": "MYLK4 (Homo sapiens, UniProt Q86YV6)"}, "NEK7": {"molecular_target": "NEK7 (Homo sapiens, UniProt Q8TDX7)"}, "NEK9": {"molecular_target": "NEK9 (Homo sapiens, UniProt Q8TD19)"}, "p38-alpha": {"molecular_target": "p38-alpha (Homo sapiens, UniProt Q16539)"}, "PDPK1": {"molecular_target": "PDPK1 (Homo sapiens, UniProt O15530)"}, "PIK3CG": {"molecular_target": "PIK3CG (Homo sapiens, UniProt P48736)"}, "PIK4CB": {"molecular_target": "PIK4CB (Homo sapiens, UniProt Q9UBF8)"}, "PIP5K1C": {"molecular_target": "PIP5K1C (Homo sapiens, UniProt O60331)"}, "PRKG1": {"molecular_target": "PRKG1 (Homo sapiens, UniProt Q13976)"}, "RET(V804L)": {"molecular_target": "RET(V804L) (Homo sapiens, UniProt P07949, V804L)"}, "RIPK4": {"molecular_target": "RIPK4 (Homo sapiens, UniProt P57078)", "sequence (P57078 whole entry)": "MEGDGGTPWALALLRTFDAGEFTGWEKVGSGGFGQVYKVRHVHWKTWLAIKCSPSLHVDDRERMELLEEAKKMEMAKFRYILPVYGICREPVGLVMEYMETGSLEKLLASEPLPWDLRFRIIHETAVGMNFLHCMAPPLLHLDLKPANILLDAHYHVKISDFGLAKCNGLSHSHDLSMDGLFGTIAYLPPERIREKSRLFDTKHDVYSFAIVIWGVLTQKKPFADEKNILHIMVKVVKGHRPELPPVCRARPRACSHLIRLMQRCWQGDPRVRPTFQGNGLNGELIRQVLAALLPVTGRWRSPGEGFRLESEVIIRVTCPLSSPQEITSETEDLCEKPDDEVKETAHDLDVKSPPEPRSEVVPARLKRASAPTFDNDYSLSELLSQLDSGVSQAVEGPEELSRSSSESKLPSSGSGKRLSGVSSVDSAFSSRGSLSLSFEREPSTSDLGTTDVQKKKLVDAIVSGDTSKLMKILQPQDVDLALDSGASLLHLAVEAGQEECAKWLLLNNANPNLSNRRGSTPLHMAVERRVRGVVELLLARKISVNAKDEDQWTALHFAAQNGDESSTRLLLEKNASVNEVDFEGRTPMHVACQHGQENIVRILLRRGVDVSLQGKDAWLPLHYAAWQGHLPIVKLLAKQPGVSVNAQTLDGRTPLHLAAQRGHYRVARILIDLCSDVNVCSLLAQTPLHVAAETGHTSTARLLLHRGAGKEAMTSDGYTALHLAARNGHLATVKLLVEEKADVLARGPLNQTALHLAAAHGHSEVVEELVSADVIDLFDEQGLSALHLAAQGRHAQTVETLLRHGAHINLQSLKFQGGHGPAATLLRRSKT"}, "TAOK3": {"molecular_target": "TAOK3 (Homo sapiens, UniProt Q9H2K8)"}, "TBK1": {"molecular_target": "TBK1 (Homo sapiens, UniProt Q9UHD2)"}, "TLK2": {"molecular_target": "TLK2 (Homo sapiens, UniProt Q86UE8)", "sequence (Q86UE8 whole entry)": "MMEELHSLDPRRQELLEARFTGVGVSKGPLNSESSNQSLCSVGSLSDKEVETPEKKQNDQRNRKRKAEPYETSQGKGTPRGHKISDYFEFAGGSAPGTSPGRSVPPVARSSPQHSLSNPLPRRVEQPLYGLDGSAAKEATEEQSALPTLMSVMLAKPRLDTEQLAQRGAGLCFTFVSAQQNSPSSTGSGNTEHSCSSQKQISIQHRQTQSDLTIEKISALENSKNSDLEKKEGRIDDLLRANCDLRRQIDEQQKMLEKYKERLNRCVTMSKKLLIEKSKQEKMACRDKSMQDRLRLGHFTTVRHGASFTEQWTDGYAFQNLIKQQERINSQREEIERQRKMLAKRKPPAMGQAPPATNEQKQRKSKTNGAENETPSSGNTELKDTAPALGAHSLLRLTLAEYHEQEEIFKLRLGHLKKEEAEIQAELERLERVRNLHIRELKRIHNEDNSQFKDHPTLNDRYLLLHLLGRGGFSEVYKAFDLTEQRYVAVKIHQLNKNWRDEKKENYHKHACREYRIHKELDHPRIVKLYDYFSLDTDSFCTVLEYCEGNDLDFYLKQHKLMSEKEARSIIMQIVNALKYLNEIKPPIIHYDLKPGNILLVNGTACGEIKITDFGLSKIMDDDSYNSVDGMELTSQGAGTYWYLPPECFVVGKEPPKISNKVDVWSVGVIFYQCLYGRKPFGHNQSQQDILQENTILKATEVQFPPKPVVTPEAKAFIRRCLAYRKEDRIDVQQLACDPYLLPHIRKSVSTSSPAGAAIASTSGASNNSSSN"}, "TSSK1B": {"molecular_target": "TSSK1B (Homo sapiens, UniProt Q9BXA7)"}, "YANK2": {"molecular_target": "YANK2 (Homo sapiens, UniProt Q9NY57)"}, "YES": {"molecular_target": "YES (Homo sapiens, UniProt P07947)", "sequence (P07947 whole entry)": "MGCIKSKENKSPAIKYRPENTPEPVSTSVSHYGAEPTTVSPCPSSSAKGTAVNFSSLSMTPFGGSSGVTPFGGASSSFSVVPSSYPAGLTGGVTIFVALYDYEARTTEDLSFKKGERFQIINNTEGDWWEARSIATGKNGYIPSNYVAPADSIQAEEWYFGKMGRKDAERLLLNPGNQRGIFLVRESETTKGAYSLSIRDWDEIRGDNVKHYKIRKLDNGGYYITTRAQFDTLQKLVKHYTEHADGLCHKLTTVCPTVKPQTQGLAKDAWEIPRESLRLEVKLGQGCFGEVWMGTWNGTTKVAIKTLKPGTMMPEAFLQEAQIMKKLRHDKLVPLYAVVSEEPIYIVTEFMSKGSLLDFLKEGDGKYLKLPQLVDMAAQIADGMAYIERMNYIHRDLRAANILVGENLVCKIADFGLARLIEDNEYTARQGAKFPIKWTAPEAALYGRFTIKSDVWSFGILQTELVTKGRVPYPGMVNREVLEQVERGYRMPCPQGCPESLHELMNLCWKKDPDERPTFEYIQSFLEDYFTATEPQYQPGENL"}}, "data": [{"smiles": "CC(C)COC(=O)c1[nH]c2ccc(F)cc2c1-c1cn(CC2CCN(CCNS(=O)(=O)c3ccc(CC(C)C)cc3)CC2)nn1", "note": "[AB668, isobutyl 5-fluoro-3-(1-((1-(2-((4-isobutylphenyl)sulfonamido)ethyl)piperidin-4-yl)methyl)-1H-1,2,3-triazol-4-yl)-1H-indole-2-carboxylate]", "values": [{"measurement": "remaining activity at 2 µM", "setting": "[1]", "value": 79, "unit": "%"}, {"measurement": "remaining activity at 2 µM", "setting": "ABL1-nonphosphorylated", "value": 96, "unit": "%"}, {"measurement": "remaining activity at 2 µM", "setting": "ABL1-phosphorylated", "value": 82, "unit": "%"}, {"measurement": "remaining activity at 2 µM", "setting": "ACVR2A", "value": 95, "unit": "%"}, {"measurement": "remaining activity at 2 µM", "setting": "CAMK1", "value": 77, "unit": "%"}, {"measurement": "remaining activity at 2 µM", "setting": "CAMK1B", "value": 100, "unit": "%"}, {"measurement": "remaining activity at 2 µM", "setting": "CDKL3", "value": 88, "unit": "%"}, {"measurement": "remaining activity at 2 µM", "setting": "EGFR(G719C)", "value": 83, "unit": "%"}, {"measurement": "remaining activity at 2 µM", "setting": "ERBB2", "value": 100, "unit": "%"}, {"measurement": "remaining activity at 2 µM", "setting": "ERK1", "value": 75, "unit": "%"}, {"measurement": "remaining activity at 2 µM", "setting": "ERK4", "value": 84, "unit": "%"}, {"measurement": "remaining activity at 2 µM", "setting": "ERN1", "value": 100, "unit": "%"}, {"measurement": "remaining activity at 2 µM", "setting": "FES", "value": 91, "unit": "%"}, {"measurement": "remaining activity at 2 µM", "setting": "FLT3(D835Y)", "value": 79, "unit": "%"}, {"measurement": "remaining activity at 2 µM", "setting": "FLT3(R834Q)", "value": 77, "unit": "%"}, {"measurement": "remaining activity at 2 µM", "setting": "GRK3", "value": 89, "unit": "%"}, {"measurement": "remaining activity at 2 µM", "setting": "HIPK3", "value": 98, "unit": "%"}, {"measurement": "remaining activity at 2 µM", "setting": "INSRR", "value": 93, "unit": "%"}, {"measurement": "remaining activity at 2 µM", "setting": "KIT(D816H)", "value": 58, "unit": "%"}, {"measurement": "remaining activity at 2 µM", "setting": "LYN", "value": 88, "unit": "%"}, {"measurement": "remaining activity at 2 µM", "setting": "MAK", "value": 96, "unit": "%"}, {"measurement": "remaining activity at 2 µM", "setting": "MAP4K5", "value": 96, "unit": "%"}, {"measurement": "remaining activity at 2 µM", "setting": "MARK4", "value": 87, "unit": "%"}, {"measurement": "remaining activity at 2 µM", "setting": "MET(Y1235D)", "value": 74, "unit": "%"}, {"measurement": "remaining activity at 2 µM", "setting": "MLK2", "value": 73, "unit": "%"}, {"measurement": "remaining activity at 2 µM", "setting": "MRCKA", "value": 84, "unit": "%"}, {"measurement": "remaining activity at 2 µM", "setting": "MYLK4", "value": 100, "unit": "%"}, {"measurement": "remaining activity at 2 µM", "setting": "NEK7", "value": 93, "unit": "%"}, {"measurement": "remaining activity at 2 µM", "setting": "NEK9", "value": 94, "unit": "%"}, {"measurement": "remaining activity at 2 µM", "setting": "p38-alpha", "value": 87, "unit": "%"}, {"measurement": "remaining activity at 2 µM", "setting": "PDPK1", "value": 98, "unit": "%"}, {"measurement": "remaining activity at 2 µM", "setting": "PIK3CG", "value": 90, "unit": "%"}, {"measurement": "remaining activity at 2 µM", "setting": "PIK4CB", "value": 75, "unit": "%"}, {"measurement": "remaining activity at 2 µM", "setting": "PIP5K1C", "value": 87, "unit": "%"}, {"measurement": "remaining activity at 2 µM", "setting": "PRKG1", "value": 85, "unit": "%"}, {"measurement": "remaining activity at 2 µM", "setting": "RET(V804L)", "value": 93, "unit": "%"}, {"measurement": "remaining activity at 2 µM", "setting": "RIPK4", "value": 100, "unit": "%"}, {"measurement": "remaining activity at 2 µM", "setting": "TAOK3", "value": 100, "unit": "%"}, {"measurement": "remaining activity at 2 µM", "setting": "TBK1", "value": 87, "unit": "%"}, {"measurement": "remaining activity at 2 µM", "setting": "TLK2", "value": 88, "unit": "%"}, {"measurement": "remaining activity at 2 µM", "setting": "TSSK1B", "value": 91, "unit": "%"}, {"measurement": "remaining activity at 2 µM", "setting": "YANK2", "value": 76, "unit": "%"}, {"measurement": "remaining activity at 2 µM", "setting": "YES", "value": 100, "unit": "%"}]}]}
